Experimental data as given in ChEMBL document CHEMBL1140623, “CC chemokine receptor-3 (CCR3) antagonists: improving the selectivity of DPC168 by reducing central ring lipophilicity” (Bioorg Med Chem Lett, 2007).

Columns and labels:
in vivo [1] = settings: BALB/c, mouse
in vivo [2] = settings: BALB/c, mouse; remark: listed apart in the source
in vivo [3] = settings: BALB/c, mouse; remark: listed apart in the source
in vivo [4] = settings: cynomolgus monkey
in vivo [5] = settings: cynomolgus monkey; remark: listed apart in the source
in vivo [6] = settings: cynomolgus monkey; remark: listed apart in the source
in vivo [7] = settings: chimpanzee
in vivo [8] = settings: chimpanzee; remark: listed apart in the source
in vivo [9] = settings: chimpanzee; remark: listed apart in the source
in vitro [10] = settings: human, Caco-2
in vitro [11] = settings: human, liver microsomes

half-life (in vivo [1]): 1.2 h | clearance (in vivo [2]): 41.7 mL/min/kg | bioavailability (in vivo [3]): 25% | bioavailability (in vivo [4]): 18% | half-life (in vivo [5]): 5.5 h | clearance (in vivo [6]): 14.5 mL/min/kg | bioavailability (in vivo [7]): 7% | half-life (in vivo [8]): 4.5 h | clearance (in vivo [9]): 21.7 mL/min/kg | Papp (in vitro [10]): 2.8 ×10⁻⁶ cm/s | CLint scaled (in vitro [11]): 16 mL/min/kg
SMILES: CC(=O)c1sc(NC(=O)N[C@@H]2CN(C(C)=O)CC[C@H]2CN2CCC[C@@H](Cc3ccc(F)cc3)C2)nc1C
